Read-outs that look alike come from different tables or passages of the source.

For series [1] the following is noted: rcm bond.
The conditions of series [2]: rcm bond, Grubbs II, CH2Cl2, 1.0 mM.
Series [3] has as its system NCI-H460 non-small cell carcinoma cells. In words: Cytotoxicity (sulphorodamine B) on NCI-H460 tumor cells. The series is classed as cell-based. The following applies: Homo sapiens, 24 h treatment, then 48 h in drug-free medium, read-out: IC50 ± SD, NCI-H460. As for the experimental part:
(§1) Tumor cells were seeded in 96-well tissue culture plates at approximately 10% confluence and were allowed to attach and recover for at least 24 h. […] The plates were incubated for 24 h at 37° C. At the end of the treatment, for NB4 tumor cells in suspension, the procedure was performed as follows: medium culture was removed by centrifugation of the plates at 1600×g for 10 min and the surnatant was removed. 250 μl PBS were added, then the plates were centrifuged at 1600×g for 10 min, the surnatant was removed. […] The plates were centrifuged again at 1600×g for 10 min, the medium culture was removed and 200 μl PBS and 50 μl of cold 80% TCA were added. The plates were incubated on ice for at least 1 h. TCA was removed, the plates were washed 3 times for immersion in distilled-water and dried before on paper, then in a thermostater at 40° C. Subsequently 200 μl of 0.4% sulphorodamine B in 1% acetic acid were added. The plates were incubated at room temperature for other 30 min. Sulphorodamine B was removed, the plates were washed for immersion in 1% acetic acid for 3 times, then they were washed and dried on paper. 200 μl Tris 10 mM were added, the plates were kept under stirring for 20 min. The survival cell was determined as optical density by a Multiskan spectrofluorimeter at 540 nm. […] Also the last day of the assay, the surnatant was removed without centrifugation.
(§2) The amount of cells killed was calculated as the percentage decrease in sulphorodamine B binding compared with control cultures.

In series [4] the test system is NB4, NCI-H460 and HCT-116 tumor cells. The series is described as follows: Cytotoxicity summarised over the three tumor cell lines. Type of series: cell-based. To be noted: Homo sapiens; mean over NB4, NCI-H460, HCT-116; 24 h of treatment. The procedure:
as §1, §2

The test system of series [5] is NB4 human promyelocitic leukaemia. The series is described as follows: Cytotoxicity (sulphorodamine B) on NB4 tumor cells. To be noted: Homo sapiens, NB-4, 24 h treatment, then 48 h in drug-free medium, read-out: IC50 ± SD, NB4. Type of series: cell-based. As for the experimental part: To test the effects of the compounds on cell growth, NB4 human promyelocitic leukaemia, NCI-H460 non-small cell carcinoma cells and HCT-116 human colon carcinoma cells were used. NB4 and NCI-H460 tumor cells were grown RPMI 1640 containing 10% fetal bovine serum (GIBCO), whereas HCT-116 tumor cells were grown in McCoy's 5A containing 10% fetal bovine serum (GIBCO).
Tumor cells were seeded in 96-well tissue culture plates at approximately 10% confluence and were allowed to attach and recover for at least 24 h. […] The plates were incubated for 24 h at 37° C. At the end of the treatment, for NB4 tumor cells in suspension, the procedure was performed as follows: medium culture was removed by centrifugation of the plates at 1600×g for 10 min and the surnatant was removed. 250 μl PBS were added, then the plates were centrifuged at 1600×g for 10 min, the surnatant was removed. 200 μl/well of medium culture RPMI 1640 containing 10% FCS were added and the plates were incubated at 37° C. for other 48 h. The plates were centrifuged again at 1600×g for 10 min, the medium culture was removed and 200 μl PBS and 50 μl of cold 80% TCA were added. The plates were incubated on ice for at least 1 h. TCA was removed, the plates were washed 3 times for immersion in distilled-water and dried before on paper, then in a thermostater at 40° C. Subsequently 200 μl of 0.4% sulphorodamine B in 1% acetic acid were added. The plates were incubated at room temperature for other 30 min. Sulphorodamine B was removed, the plates were washed for immersion in 1% acetic acid for 3 times, then they were washed and dried on paper. 200 μl Tris 10 mM were added, the plates were kept under stirring for 20 min. The survival cell was determined as optical density by a Multiskan spectrofluorimeter at 540 nm. For the tumor cells in adhesion (NCI-H460 and HCT-116), the procedure was as above mentioned, except that the at the end of the treatment, the plates were washed by remotion of the surnatant and addition of PBS 3 times and not by centrifugation. Also the last day of the assay, the surnatant was removed without centrifugation.
as §2

Series [6] deals with HCT-116 human colon carcinoma cells. The series is described as follows: Cytotoxicity (sulphorodamine B) on HCT-116 tumor cells. Type of series: cell-based. The following applies: Homo sapiens, HCT-116 cells, 24 h treatment, then 48 h in drug-free medium, read-out: IC50 ± SD, HCT-116. As for the experimental part:
as §1, §2

In the case of `COC(=O)CCCCC[C@H]1C(=O)Nc2ccccc2OCCCC=CCN1C(=O)OC(C)(C)C`, the ring closure, yield of all isomers in series [1] (from C=CCCCOc1ccccc1NC(=O)[C@H](CCCCCC(=O)OC)N(CC=C)C(=O)OC(C)(C)C) was 84%.

With `COC(=O)CCCCC[C@H]1C(=O)Nc2ccccc2OCCCCC=CCN1C(=O)OC(C)(C)C`, the ring closure, yield of all isomers in series [1] (from C=CCCCCOc1ccccc1NC(=O)[C@H](CCCCCC(=O)OC)N(CC=C)C(=O)OC(C)(C)C) was 82%.

With “7-(S)-Allyl-tert-butoxycarbonylamino)-7-(2-hex-5-enyloxyphenylcarbamoyl)heptanoic acid methyl ester”, the ring closure, isolated yield in series [2] (the molecule shown is the open-chain precursor, 14-membered ring) stood at 82%.

In the case of “7-(S)-Allyl-tert-butoxycarbonylamino)-7-(2-pent-4-enyloxyphenylcarbamoyl)heptanoic acid methyl ester”, the ring closure, isolated yield in series [2] (the molecule shown is the open-chain precursor, 13-membered ring) is 84%.

Regarding `COC(=O)CCCCCC1OCC=CCC(c2ccc(OC)cc2)Oc2ccccc2NC1=O` (racemic), the ring closure, isolated yield in series [2] (from C=CCOC(CCCCCC(=O)OC)C(=O)Nc1ccccc1OC(CC=C)c1ccc(OC)cc1, 12-membered ring) came to 45%.

In series [1] (from C=CCCCOc1ccncc1NC(=O)C(CCCCCC(=O)OC)OCC=C), `COC(=O)CCCCCC1OCC=CCCCOc2ccncc2NC1=O` (racemic) registered a ring closure, yield of all isomers of 45%. This compound also yielded a ring closure, isolated yield in series [2] (from C=CCCCOc1ccncc1NC(=O)C(CCCCCC(=O)OC)OCC=C, 13-membered ring) of 45%.

On to `COC(=O)CCCCCC1OCC=Cc2cc(cc(OC)c2)COc2ccccc2NC1=O` (racemic), for which the ring closure, isolated yield in series [2] (from C=CCOC(CCCCCC(=O)OC)C(=O)Nc1ccccc1OCc1cc(C=C)cc(OC)c1, 14-membered ring) stood at 52%.

Consider `O=C(CCCCCC(OCc1ccc(Br)cc1)C(=O)Nc1ccccc1)NO` (racemic) [Compound 9f, (±)-2-(4-Bromobenzyloxy)octanedioic acid 8-hydroxyamide 1-phenylamide], for which the half-maximal inhibitory concentration (IC50) (usually the concentration that gives 50% inhibition) in series [3] was 500 ± 40 nM; in series [4], less than 1000 nM; in series [5] it was 60 ± 4 nM; in series [6], 300 ± 50 nM.

Take `Cc1ccc(COC(CCCCCC(=O)NO)C(=O)Nc2ccccc2)cc1` (racemic) [Compound 9g, (±)-2-(4-Methylbenzyloxy)octanedioic acid 8-hydroxyamide 1-phenylamide]: the concentration for half-maximal inhibition (IC50) was 600 ± 10 nM in series [3], less than 1000 nM in series [4], 100 ± 10 nM in series [5] and 300 ± 9 nM in series [6].

On to `COc1cccc(COC(CCCCCC(=O)NO)C(=O)Nc2ccccc2)c1` (racemic) [Compound 9h, (±)-2-(3-Methoxybenzyloxy)octanedioic acid 8-hydroxyamide 1-phenylamide], for which the IC50 is 600 ± 30 nM in series [3], less than 1000 nM in series [4], 200 ± 7 nM in series [5] and 600 ± 100 nM in series [6].

For the compound `COc1cc(COC(CCCCCC(=O)NO)C(=O)Nc2ccccc2)cc(OC)c1` (racemic) [Compound 9j, (±)-2-(3,5-Dimethoxybenzyloxy)octanedioic acid 8-hydroxyamide 1-phenylamide], the IC50 in series [3] is 400 ± 70 nM; in series [4], less than 1000 nM; in series [5] it was 50 ± 5 nM; in series [6], 300 ± 8 nM.

For `O=C(CCCCCC(OCc1cccc(Oc2ccccc2)c1)C(=O)Nc1ccccc1)NO` (racemic) [Compound 9k, (±)-2-(3-Phenoxybenzyloxy)-octanedioic acid 8-hydroxyamide 1-phenylamide], the half-maximal inhibitory concentration (IC50) in series [3] was 700 ± 40 nM; in series [4] it was less than 1000 nM; in series [5] it was 200 ± 9 nM; in series [6], 700 ± 80 nM.

For the compound `COc1ccc(NC(=O)C(CCCCCC(=O)NO)OCc2ccccc2)cc1` (racemic) [Compound 9l, (±)-2-Benzyloxyoctanedioic acid 8-hydroxyamide 1-[(4-methoxyphenyl)-amide]], the IC50 in series [3] is 1000 ± 90 nM; in series [4], less than 1000 nM; in series [5], 200 ± 20 nM; in series [6], 500 ± 60 nM.

On to `COc1ccc(COC(CCCCCC(=O)NO)C(=O)Nc2ccc(OC)cc2)cc1` (racemic) [Compound 9m, (±)-2-(4-Methoxybenzyloxy)octanedioic acid 8-hydroxyamide 1-[(4-methoxyphenyl)amide]], for which the IC50 in series [3] was 300 ± 40 nM; in series [4] it was less than 1000 nM; in series [5], 100 ± 40 nM; in series [6] it was 300 ± 10 nM.

Turning to `COc1ccc(COC(CCCCCCC(=O)NO)C(=O)Nc2ccccc2)cc1` (racemic) [Compound 13d, (±)-2-(4-Methoxybenzyloxy)nonanedioic acid 9-hydroxyamide 1-phenylamide], the IC50 is 700 ± 30 nM in series [3], less than 1000 nM in series [4], 300 ± 30 nM in series [5] and 500 ± 100 nM in series [6].

Take `COc1ccc(CO[C@H](CCCCCC(=O)NO)C(=O)Nc2ccccc2)cc1` [(R)-9d, 2-(R)-(4-Methoxybenzyloxy)octanedioic acid 8-hydroxyamide 1-phenylamide]: the IC50 is 500 ± 30 nM in series [3], less than 1000 nM in series [4], 70 ± 10 nM in series [5] and 400 ± 10 nM in series [6].

For the origin of these results see patent publication US20100113504A1, “AMIDE COMPOUNDS AND THEIR USE AS ANTITUMOR AGENTS” (SIGMA-TAU INDUSTRIE FARMACEUTICHE RIUNITE S.P.A., priority 2007, published 2010).
